Results on seven molecules are retold here after publication PMC9490837, “Electronic Coupling in 1,2,3-Triazole Bridged Ferrocenes and Its Impact on Reactive Oxygen Species Generation and Deleterious Activity in Cancer Cells” (Inorganic Chemistry, 2022).

The structures appear in SMILES notation. Several values for one entry are separate records, joined by “and”; a condition that tells them apart may be missing. Equal entries are not always repeated.

The test system of series [1] is H1975 cells. The series is described as follows: Crystal violet cell viability / antiproliferative assay, H1975. The conditions noted are these: for Selectivity index SInd, H1975: IC50(BEAS-2B)/IC50(H1975); for IC50: human NSCLC H1975 cells, treatment time 72 h. The class given is cell-based, human. How it is done: (§1) Human non-small-cell lung cancer cell lines A549 and H1975 and the human bronchial epithelial BEAS-2B cell line were purchased from ATCC (Manassas, VA). Cells were cultured in Roswell Park Memorial Institute (RPMI)-1640 media supplemented with 10% v/v fetal bovine serum, 100 U·mL^–1 penicillin, and 100 μg·mL^–1 streptomycin. Cells were grown in a humidified atmosphere at 37 °C and 5% CO2.
(§2) Crystal violet staining was used to assess cell viability. […] After 72 h, the medium was discarded and cells were stained for 30 min with 5% w/v crystal violet solution in 66% v/v methanol, 200 μL per well. After staining, the crystal violet solution was removed, and the 24-well plate was washed with water to eliminate the excess solution. When dried, the plates were photographed. Quantitation of crystal violet staining was performed after solubilizing the dye in 10% acetic acid, 400 μL per well, and reading the absorbance of each well at 540 nm (HT Synergy 96-well microplate reader, Bio-Tek Instruments, Winooski, VT). The relative absorbance of untreated cells was considered as 100% viability; results were expressed as a percentage of viable cells vs untreated cells.

The subject of the next series is BEAS-2B cells. The series is described as follows: Crystal violet cell viability / antiproliferative assay, BEAS-2B. The class given is cell-based, human. The conditions noted are these: for IC50: nonmalignant human bronchial epithelium BEAS-2B cells, treatment time 72 h. On the procedure:
as §1, §2

Series [2] concerns A549 cells. The series is described as follows: Crystal violet cell viability / antiproliferative assay, A549. The class given is cell-based, human. The conditions noted are these: for Selectivity index SInd, A549: IC50(BEAS-2B)/IC50(A549); for IC50: human NSCLC A549 cells, treatment time 72 h. How it is done: as §1, §2
The test system of a further series is A549 and H1975 cells. The series is described as follows: ROS generation, CM-H2DCFDA fluorimetric assay, statements covering both cancer cell lines. The format is cell-based, human. The conditions noted are these: 1 h; for Effect of NAC addition on ROS generation: 20 μM compound, 50 μM NAC; for ROS generation compared with cisplatin, tamoxifen and 5-fluorouracil: both cancer cell types, 20 μM. On the procedure: (§3) Then, detached cells were resuspended in 0.5 mL of phosphate-buffered saline (PBS) containing 10 μM·L^–1 fluorescent probe 5-(and-6)-chloromethyl-2′,7′-dichlorodihydrofluorescein diacetate-acetyl ester (CM-H2DCFDA) and incubated for 15 min at 37 °C. Afterward, the incubation cells were centrifuged at 13,000 rpm for 30 s and resuspended in 0.5 mL of PBS. The fluorescence of each sample (index of ROS levels) was read at 488 nm (λexcitation) and 520 nm (λemission). The results were expressed as DCF fluorescence per mg cell proteins normalized vs control.

Series [3] is described as follows: Cyclic voltammetry in dichloromethane. The conditions noted are these: for E1°′ formal potential / E3°′ formal potential / E2°′ formal potential: vs FcH/[FcH]+, CH2Cl2, 0.1 mol·L–1 [NBu4][B(C6F5)4], 25 °C, scan rate 100 mV·s–1; for KC comproportionation constant: KC = exp(nF/RT)ΔE1/2, 25 °C; for Difference between the formal potentials: first and second oxidation. The class given is physicochemical. On the procedure: Electrochemical studies of compounds 1a, 1c, 2a, and 2c were carried out using cyclic voltammetry (CV) and square-wave voltammetry (SWV) (Table 1; Figures 5 (compounds 1a, 2a) and S13 (compounds 1c, 2c), see the SI). A solution of [NBu4][B(C6F5)4] (0.1 mol·L^–1) in anhydrous CH2Cl2 was used as the supporting electrolyte.[79] The choice of the supporting electrolyte was motivated by the beneficial properties of [B(C6F5)4]^− ions. In contrast to smaller counter ions such as [Cl]^−, [PF6]^−, [BF4]^−, or [ClO4]^−, [B(C6F5)4]^− tolerates the stabilization of greatly charged species in solution, minimizing undesired ion-pairing effects.[80],[81] The voltammetry experiments were performed at 25 °C. All potentials are referenced to the FcH/[FcH]^+ (Fc = Fe(η^5-C5H4)(η^5-C5H5)) redox couple (E°′ = 0 mV).[82]
Measurements on 1.0 mmol·L^–1 solutions of analytes 1a, 1c, 2a, and 2c in anhydrous dichloromethane solutions, containing 0.1 mol·L^–1 [NBu4][B(C6F5)4] as the supporting electrolyte, were conducted under an atmosphere of argon at 25 °C. A three-electrode cell, which utilized a Pt auxiliary electrode, a glassy carbon working electrode (surface area 0.031 cm^2), and an Ag/Ag^+ (0.01 mol·L^–1 AgNO3) reference electrode, was used as described in refs ([82]) and ([102]−[104]). […] Experimental potentials were referenced against an Ag/Ag^+ reference electrode, but results presented are referenced against the ferrocene [FcH/FcH^+ couple = 220 mV vs Ag/Ag^+, ΔEp = 61 mV; FcH = Fe(η^5-C5H5)2] as an internal standard.[82] When decamethylferrocene [Fc* = Fe(η^5-C5Me5)2] was used as an internal standard, the experimentally measured potentials were converted into Evs FcH/FcH^+ (under our conditions, the Fc*/Fc*^+ couple was at −614 mV vs FcH/FcH^+, ΔEp = 60 mV).

The subject of series [4] is H1975 cells. Kind of series: ROS generation, CM-H2DCFDA fluorimetric assay, H1975. The class given is cell-based, human. The settings on record: 20 μM, 1 h. How it is done:
as §3

Series [5] relates to A549 cells. The series is described as follows: ROS generation, CM-H2DCFDA fluorimetric assay, A549. The settings on record: 20 μM, 1 h. The format is cell-based, human. On the procedure: as §3
The mark [6] stands for this setting: versus cisplatin, tamoxifen, 5-fluorouracil.

With `N.N.[Cl][Pt][Cl]` [cisplatin, reference compound], the “Selectivity index SInd, H1975” value in the series with H1975 cells [1] (72 h) amounted to 0.7. Further, the IC50 with H1975 cells [1] amounted to 4 ± 0.1 µM; with BEAS-2B cells, 3 ± 0.1 µM; with A549 cells [2] it was 108 ± 12 µM. The “Selectivity index SInd, A549” value in the series with A549 cells [2] (72 h) is recorded as 0.02. For the same molecule, in the series on A549 and H1975 cells, the “Effect of NAC addition on ROS generation” value is recorded as “almost no effect”.

Consider `O=C(CCn1cc(-[c-]2cccc2)nn1)[c-]1cccc1.[Fe+2].[Fe+2].c1cc[cH-]c1.c1cc[cH-]c1` [compound 2c, 1-(3-Propionyloferrocenyl)-4-ferrocenyl-1H-1,2,3-triazole], for which the “Selectivity index SInd, H1975” value with H1975 cells [1] (72 h) worked out at 1.6. In addition, the IC50 stood at 122 ± 45 µM in the series with H1975 cells [1], 198 ± 7 µM in the series with BEAS-2B cells and 805 ± 72 µM in the series with A549 cells [2]. Further, the “Selectivity index SInd, A549” value with A549 cells [2] (72 h) is listed as 0.2. Further, the “E1°′ formal potential” value in series [3] is 20 mV and 20 (61) mV. Besides, the “E3°′ formal potential” value in series [3] is 330 mV and 330 (67) mV.

On to `O=c1[nH]cc(F)c(=O)[nH]1` [5-fluorouracil, reference compound], for which the “Selectivity index SInd, H1975” value in the series on H1975 cells [1] (72 h) worked out at 0.2. Besides, the IC50 with H1975 cells [1] (NCI-H1975) turned out to be 32 ± 12 µM; in the series on BEAS-2B cells, 6 ± 0.1 µM; in the series with A549 cells [2], 69 ± 21 µM. For the same molecule, in the series with A549 cells [2] (72 h), the “Selectivity index SInd, A549” value was 0.1. Besides, in the series with A549 and H1975 cells, the “Effect of NAC addition on ROS generation” value is given as “almost no effect”.

Turning to `Cc1cn([C@H]2C[C@H](n3nnc(-[c-]4cccc4)c3C#C[c-]3cccc3)[C@@H](CO)O2)c(=O)[nH]c1=O.[Fe+2].[Fe+2].c1cc[cH-]c1.c1cc[cH-]c1` [compound 1a, 3′-Deoxy-3′-(4-ferrocenyl-5-ethynylferrocenyl-1H-1,2,3-triazol-1-yl)thymidine], the “Increase of cell viability with NAC compared to cells treated only with compound” value with H1975 cells [1] (H1975 cells, 20 μM compound, 50 μM NAC, 72 h) is recorded as approximately 20%; with BEAS-2B cells (BEAS-2B cells, 20 μM compound, 50 μM NAC, 72 h), “analogous increase”; in the series with A549 cells [2] (A549 cells, 20 μM compound, 50 μM NAC, 72 h) it was “analogous increase”. The “Selectivity index SInd, H1975” value in the series with H1975 cells [1] (72 h) was determined as 93.8. For the same molecule, the results for the IC50 in the series with H1975 cells [1], with BEAS-2B cells and in the series on A549 cells [2] were 5 ± 2 µM, 469 ± 10 µM and 57 ± 18 µM, respectively. For the same molecule, the “ROS generated, times more than 1c” value in the series with H1975 cells [4] is given as “about 1.6 times”; in the series with A549 cells [5] it was approximately 2.5 times. The “ROS generation, times more potent than reference drugs” value is recorded as “about 2 times” with H1975 cells [4] (setting [6]) and approximately 2.5 times in the series on A549 cells [5] (setting [6]). The “Selectivity index SInd, A549” value in the series with A549 cells [2] (72 h) is on record as 8.2. The molecule also came in with a KC comproportionation constant in series [3] of 2412. Further, the “Difference between the formal potentials” value in series [3] worked out at 200 mV. In series [3], the “E1°′ formal potential” value was 80 mV and 80 (60) mV. Besides, the “E2°′ formal potential” value in series [3] is 280 mV and 280 (66) mV. The “ROS generation compared with cisplatin, tamoxifen and 5-fluorouracil” value in the series on A549 and H1975 cells is listed as “more effective ROS generators”.

Consider `CC/C(=C(\c1ccccc1)c1ccc(OCCN(C)C)cc1)c1ccccc1` [tamoxifen], for which, in the series on A549 and H1975 cells, the “Effect of NAC addition on ROS generation” value is “almost no effect”.

`O=C(CCn1nnc(-[c-]2cccc2)c1C#C[c-]1cccc1)[c-]1cccc1.[Fe+2].[Fe+2].[Fe+2].c1cc[cH-]c1.c1cc[cH-]c1.c1cc[cH-]c1` [compound 2a, 1-(3-Propionylferrocenyl)-4-ferrocenyl-5-ethynylferrocenyl-1H-1,2,3-triazole]: in the series on H1975 cells [1] (72 h), the “Selectivity index SInd, H1975” value was determined as 3.0. Further, in the series on H1975 cells [1], the IC50 turned out to be 84 ± 5 µM. For the same molecule, the IC50 in the series with BEAS-2B cells worked out at 257 ± 5 µM. In the series on A549 cells [2] (72 h), the “Selectivity index SInd, A549” value is 1.4. Also, the IC50 with A549 cells [2] came to 184 ± 7 µM. Also, in series [3], the KC comproportionation constant worked out at 9426; the “Difference between the formal potentials” value is 235 mV; the “E1°′ formal potential” value was 45 mV and 45 (60) mV; the “E2°′ formal potential” value was 280 mV and 280 (61) mV. In series [3], the “E3°′ formal potential” value was 365 mV and 365 (63) mV.

Regarding `Cc1cn([C@H]2C[C@H](n3cc(-[c-]4cccc4)nn3)[C@@H](CO)O2)c(=O)[nH]c1=O.[Fe+2].c1cc[cH-]c1` [compound 1c, 3′-Deoxy-3′-(4-ferrocenyl-1H-1,2,3-triazol-1-yl)thymidine], in the series with H1975 cells [1] (72 h), the “Selectivity index SInd, H1975” value stood at 0.5. Besides, the IC50 came out at 456 ± 17 µM in the series on H1975 cells [1], 215 ± 7 µM in the series on BEAS-2B cells and 230 ± 13 µM in the series with A549 cells [2]. The “Selectivity index SInd, A549” value with A549 cells [2] (72 h) is listed as 0.9. The “E1°′ formal potential” value in series [3] is 60 mV and 60 (66) mV. Moreover, the “ROS generation compared with cisplatin, tamoxifen and 5-fluorouracil” value with A549 and H1975 cells was “more effective ROS generators”.

As usually defined, the IC50 is the concentration that gives 50% inhibition.
